Values belong to the molecule of their own block, whether it stands above or below them. Calls of active or inactive are those of the source. The calls are words filed in the database; no cut-off is given here.
Tests used:
[1] = biological target: Transcriptional activator Myb (Homo sapiens, UniProt P10242); experiment: Inhibition of c-Myb (unknown origin) expressed in HEK293T cells measured after 16 hrs by steady-glo luciferase reporter gene assay; format: cell-based
[2] = biological target: T1, Caspase-3/Caspase-7 (Homo sapiens) (UniProt P42574+P55210); experiment: Activation of caspase-3/7 activity in human 518A2 cells at 1 uM preincubated for 6 hrs followed by caspase-3/7 fluorogenic substrate addition and measured after 60 mins by fluorescence assay; format: cell-based; settings: filed as activator, time 7.0 hrs
T1 sequence (P42574 whole entry, looked up): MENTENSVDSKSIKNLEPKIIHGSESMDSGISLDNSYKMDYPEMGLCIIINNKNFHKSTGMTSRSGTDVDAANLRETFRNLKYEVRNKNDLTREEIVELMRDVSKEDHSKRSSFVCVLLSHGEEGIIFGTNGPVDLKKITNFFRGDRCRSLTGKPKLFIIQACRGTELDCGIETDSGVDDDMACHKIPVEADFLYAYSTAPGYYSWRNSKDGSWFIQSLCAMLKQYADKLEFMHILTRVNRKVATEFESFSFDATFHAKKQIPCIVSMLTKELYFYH
T1 sequence (P55210 whole entry, looked up): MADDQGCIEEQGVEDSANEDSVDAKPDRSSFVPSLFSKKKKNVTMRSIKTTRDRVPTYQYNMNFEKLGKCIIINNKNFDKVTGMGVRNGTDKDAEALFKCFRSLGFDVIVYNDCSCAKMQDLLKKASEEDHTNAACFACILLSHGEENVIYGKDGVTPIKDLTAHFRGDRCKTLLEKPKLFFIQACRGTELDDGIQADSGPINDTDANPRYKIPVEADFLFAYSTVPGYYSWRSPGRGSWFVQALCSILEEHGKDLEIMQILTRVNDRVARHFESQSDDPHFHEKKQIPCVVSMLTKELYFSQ

518A2 [3] = experiment: Cell cycle arrest in human […] cells assessed as increase in accumulation at G2/M phase at 25 nM measured after 6 to 24 hrs by propidium iodide staining based FACS analysis; format: functional; settings: time 6-24 hrs
518A2 [4] = experiment: Cytotoxicity against human 518A2 cells assessed as reduction in cell viability measured after 72 hrs by MTT assay; format: functional, cell-based; settings: 518A2, 72 h
[5] = Cytotoxicity against HDFa cells assessed as reduction in cell viability at 0.0005 to 100 uM measured after 72 hrs by MTT assay; format: toxicity, cell-based; settings: human, dose 0.0005-100 µM
KB-V1 [6] = experiment: Cytotoxicity against human multidrug-resistant KB-V1 cells assessed as reduction in cell viability measured after 72 hrs by MTT assay; format: functional, cell-based; settings: KB-V1, 72 h
HeLa = experiment: Cytotoxicity against human HeLa cells assessed as reduction in cell viability measured after 72 hrs by MTT assay; format: functional, cell-based
[7] = Effect on angiogenic activity in 24 hrs post-fertilized fil1/EGFP transgenic zebrafish embryo assessed as subintestinal vessel area at 100 nM measured after 48 hrs by fluorescence microscopy (reference value: 100%); format: toxicity, Danio rerio; settings: 0.1 µM
Sus scrofa = organism: Sus scrofa; experiment: Inhibition of porcine brain tubulin polymerization at 5 uM measured at 10 mins interval for 100 mins by turbidimetric assay; format: tissue-based
[8] = Cytotoxicity against human EA.hy 926 cells assessed as reduction in cell viability measured after 72 hrs by MTT assay; format: toxicity, cell-based
[9] = Effect on angiogenic activity in human EA.hy 926 cells assessed as reduction in vessel like 2D structure at 25 nM measured after 5 hrs by light microscopy; format: toxicity, cell-based; settings: ea.hy 926, 5 h, 0.025 µM
Tubulin (Homo sapiens) [10] = biological target: T2, Tubulin (Homo sapiens) (UniProt P68371+Q9H4B7+P0DPH7+P68366+Q13509+Q71U36+P04350+Q3ZCM7+P07437+P68363+Q9BQE3+Q6PEY2+Q13885+Q9BVA1+Q9BUF5); experiment: Induction of microtubule fragmentation in human 518A2 cells assessed as appearance of area with transverse arcs at 25 nM measured after 24 hrs by immunofluorescence assay; format: cell-based
HCT-116 [11] = experiment: Cytotoxicity against p53-deficient human HCT-116 cells assessed as reduction in cell viability measured after 72 hrs by MTT assay; format: functional, cell-based; settings: HCT-116, 72 h
Tubulin (Homo sapiens) [12] = biological target: T2, Tubulin (Homo sapiens); experiment: Induction of microtubule fragmentation in human 518A2 cells assessed as appearance of area with dorsal stress fibre at 25 nM measured after 24 hrs by immunofluorescence assay; format: cell-based
[13] = biological target: T1, Caspase-3/Caspase-7 (Homo sapiens); experiment: Activation of caspase-3/7 activity in human 518A2 cells at 25 nM preincubated for 24 hrs followed by caspase-3/7 fluorogenic substrate addition and measured after 60 mins by fluorescence assay; format: cell-based; settings: filed as activator, time 25.0 hrs
MCF7 = experiment: Cytotoxicity against human MCF7 cells assessed as reduction in cell viability measured after 72 hrs by MTT assay; format: functional, cell-based; settings: MCF7, 72 h
[14] = Cytotoxicity against human U-87 cells assessed as reduction in cell viability measured after 72 hrs by MTT assay; format: functional, cell-based, U-87MG ATCC; settings: U-87 MG
HT-29 = experiment: Cytotoxicity against human HT-29 cells assessed as reduction in cell viability measured after 72 hrs by MTT assay; format: functional, cell-based; settings: HT-29, 72 h
Tubulin (Homo sapiens) [15] = biological target: T2, Tubulin (Homo sapiens); experiment: Induction of microtubule fragmentation in human 518A2 cells at 25 nM measured after 24 hrs by immunofluorescence assay; format: cell-based
HCT-116 [16] = experiment: Cytotoxicity against human HCT-116 cells assessed as reduction in cell viability measured after 72 hrs by MTT assay; format: functional, cell-based; settings: HCT-116, 72 h
KB-V1 [17] = experiment: Cytotoxicity against human multidrug-resistant KB-V1 cells assessed as reduction in cell viability measured after 72 hrs in presence of verapamil by MTT assay; format: functional, cell-based; settings: KB-V1, 72 h
518A2 [18] = experiment: Cell cycle arrest in human […] cells assessed as increase in accumulation at sub-G1 phase at 25 nM measured after 6 to 24 hrs by propidium iodide staining based FACS analysis; format: functional; settings: time 6-24 hrs
[19] = Hydrolytic stability of compound in DMSO-d6/D2O measured after 7 days by 1H-NMR analysis; format: physicochemical; settings: 168 h; time 7 day

Sequence of Transcriptional activator Myb (P10242 whole entry): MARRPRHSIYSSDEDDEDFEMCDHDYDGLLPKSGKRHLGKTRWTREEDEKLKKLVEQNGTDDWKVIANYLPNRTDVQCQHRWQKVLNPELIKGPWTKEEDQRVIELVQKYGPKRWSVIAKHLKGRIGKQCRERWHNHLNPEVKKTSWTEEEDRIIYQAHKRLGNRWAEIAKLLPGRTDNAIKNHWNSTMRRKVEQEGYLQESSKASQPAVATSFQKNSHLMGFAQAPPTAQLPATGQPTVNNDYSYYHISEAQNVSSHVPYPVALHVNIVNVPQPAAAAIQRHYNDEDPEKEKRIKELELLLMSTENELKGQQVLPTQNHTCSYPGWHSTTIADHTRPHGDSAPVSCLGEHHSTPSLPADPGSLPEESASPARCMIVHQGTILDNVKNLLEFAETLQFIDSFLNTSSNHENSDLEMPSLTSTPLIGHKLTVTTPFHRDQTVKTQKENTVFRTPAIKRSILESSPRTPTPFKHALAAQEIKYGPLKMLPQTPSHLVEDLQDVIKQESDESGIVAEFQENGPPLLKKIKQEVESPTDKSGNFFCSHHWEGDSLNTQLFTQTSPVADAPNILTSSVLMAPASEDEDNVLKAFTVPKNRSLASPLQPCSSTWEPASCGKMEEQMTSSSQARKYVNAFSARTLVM

Compound: CN[C@@H]1C[C@H]2O[C@@](C)([C@@H]1OC)n1c3ccccc3c3c4c(c5c6ccccc6n2c5c31)C(=O)NC4
Activity [2]: Active

Compound: COc1ccc(C2C(C#N)=C(N)Oc3c2ccc2ccccc32)cc1Br (configuration not stated)
IC50 [1]: 420 nM

Compound: COc1ccc(/C=C\c2cc(OC)c(OC)c(OC)c2)cc1O [COMBRETASTATIN A4]
Activity (518A2 [3]): Active
inhibition (Sus scrofa): Active
Activity (Tubulin (Homo sapiens) [10]): Active
Activity (Tubulin (Homo sapiens) [12]): Active
Activity (Tubulin (Homo sapiens) [15]): Active
Stability [19]: Unstable

Compound: Cc1ccc(C2C(C#N)=C(N)Oc3c2ccc2ccccc32)cc1 (configuration not stated)
IC50 [1]: 430 nM

Compound: COc1cc(C2C(C#N)=C(N)Oc3c2ccc2ccccc32)cc(OC)c1OC (configuration not stated)
Activity (518A2 [3]): Active
IC50 (518A2 [4]): 28.8 nM
Activity [5]: Toxic
IC50 (KB-V1 [6]): 26.4 nM
IC50 (HeLa): 11.3 nM
Activity [7]: 81.4%
inhibition (Sus scrofa): Active
IC50 at 72 h [8]: 19.9 nM
Activity [9]: Toxic
IC50 [1]: 9.1 nM
Activity (Tubulin (Homo sapiens) [10]): Active
IC50 (HCT-116 [11]): 27.6 nM
Activity (Tubulin (Homo sapiens) [12]): Active
Activity [13]: Active
IC50 (MCF7): 34.1 nM
IC50 [14]: 5.2 nM
IC50 (HT-29): 324 nM
Activity (Tubulin (Homo sapiens) [15]): Active
IC50 (HCT-116 [16]): 22.2 nM
Stability [19]: Stable
IC50 (KB-V1 [17]): 8.8 nM
Activity (518A2 [18]): Active

Compound: N#CC1=C(N)Oc2c(ccc3ccccc23)C1c1ccc(S(F)(F)(F)(F)F)cc1 (configuration not stated)
IC50 [1]: 3200 nM

Compound: N#CC1=C(N)Oc2c(ccc3ccccc23)C1c1cccc(S(F)(F)(F)(F)F)c1 (configuration not stated)
IC50 [1]: 130 nM

Compound: CNC(=O)c1ccccc1Sc1ccc2c(/C=C/c3ccccn3)n[nH]c2c1 [AXITINIB]
Activity [7]: 19.6%

Compound: CSc1ccc(C2C(C#N)=C(N)Oc3c2ccc2ccccc32)cc1 (configuration not stated)
IC50 [1]: 210 nM

The remaining molecules from weak to strong by IC50 [1], led by results:

IC50 [1]: 110 nM
Compound: COc1ccc(C2C(C#N)=C(N)Oc3c2ccc2ccccc32)cc1[N+](=O)[O-] (configuration not stated)

IC50 [1]: 70 nM
Compound: N#CC1=C(N)Oc2c(ccc3ccccc23)C1c1cc(F)c(F)c(F)c1 (configuration not stated)

IC50 [1]: 36.8 nM
Compound: CCOc1c(Br)cc(C2C(C#N)=C(N)Oc3c2ccc2ccccc32)cc1OC (configuration not stated)

IC50 [1]: 30 nM
Activity (Tubulin (Homo sapiens) [10]): Active
Activity (Tubulin (Homo sapiens) [12]): Active
Activity [13]: Active
Activity (Tubulin (Homo sapiens) [15]): Active
Compound: CCCOc1c(OC)cc(C2C(C#N)=C(N)Oc3c2ccc2ccccc32)cc1OC (configuration not stated)
Activity (518A2 [3]): Active
IC50 (518A2 [4]): 26.1 nM
Activity [5]: Toxic
IC50 (KB-V1 [6]): 23.1 nM
IC50 (HeLa): 33.1 nM
Activity [7]: 74.5%
inhibition (Sus scrofa): Active
IC50 at 72 h [8]: 11.9 nM
Activity [9]: Toxic
IC50 (HCT-116 [11]): 33.1 nM
IC50 (MCF7): 21.4 nM
IC50 [14]: 27.4 nM
IC50 (HT-29): 284 nM
IC50 (HCT-116 [16]): 68.5 nM
IC50 (KB-V1 [17]): 16.3 nM
Activity (518A2 [18]): Active

IC50 [1]: 30 nM
Activity (Tubulin (Homo sapiens) [10]): Active
Activity (Tubulin (Homo sapiens) [12]): Active
Activity [13]: Active
Activity (Tubulin (Homo sapiens) [15]): Active
Compound: CCCCOc1c(OC)cc(C2C(C#N)=C(N)Oc3c2ccc2ccccc32)cc1OC (configuration not stated)
IC50 (518A2 [4]): 143 nM
Activity [5]: Toxic
IC50 (KB-V1 [6]): 84.5 nM
IC50 (HeLa): 98.9 nM
Activity [7]: 87.6%
inhibition (Sus scrofa): Active
IC50 at 72 h [8]: 78 nM
IC50 (HCT-116 [11]): 172 nM
IC50 (MCF7): 103 nM
IC50 [14]: 46.3 nM
IC50 (HT-29): 671 nM
IC50 (HCT-116 [16]): 67.4 nM
IC50 (KB-V1 [17]): 41.6 nM

Reference: ChEMBL document CHEMBL5126678, “A New Naphthopyran Derivative Combines c-Myb Inhibition, Microtubule-Targeting Effects, and Antiangiogenic Properties” (ACS Med Chem Lett, 2022)
